Laboratory results as given in PMC10222548, “Semisynthesis, Biological Evaluation and Molecular Docking Studies of Barbatic Acid Derivatives as Novel Diuretic Candidates” (Molecules, 2023).

Key:
MDCK cells = experiment: MTT cytotoxicity assay on MDCK cells; format: cell-based, canine; details: Canis lupus familiaris, 100 μmol/L, 24 h, mean ± SD of three replicates, read-out: Growth Inhibition Rate (%)
Outline: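 MDCK cells at 10^4/well, grown 24 h, exposed 24 h to compound at 100 μmol/L (saline control; hydrochlorothiazide 100 μmol/L reference). MTT 4 h, DMSO solubilization, OD 490 nm; growth inhibition % = (ODblank − ODexperimental)/ODblank × 100.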

[1] = tested on: Na^+ transport, MDCK cells; experiment: In vitro diuretic activity: Na^+ transport inhibition, Transwell chamber seeded with MDCK cells; format: cell-based, canine; details: for inhibition at 100 µM: Canis lupus familiaris, MDCK, read-out: Transport Inhibition Rate (%) Na^+
Outline: (§1)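 MDCK monolayers on Transwell inserts (resistance ≥300 Ω cm^2) exposed apically to compounds at 100 μmol/L for 24 h. Then 15 mg/mL NaCl added to upper chamber; Na^+ and Cl^− in lower fluid measured by kit OD at 0.5, 1, 2 and 3 h. Inhibition % = (ODblank − ODexperimental)/ODblank × 100, blank = normal saline.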

[2] = tested on: Cl^− transport, MDCK cells; experiment: In vitro diuretic activity: Cl^− transport inhibition, Transwell chamber seeded with MDCK cells; format: cell-based, canine; details: Canis lupus familiaris; 100 μmol/L, MDCK cells in Transwell; mean ± SD of three replicates; negative = promotion; read-out: Transport Inhibition Rate (%) Cl^−
Outline: as §1

[3] = tested on: Ca^2+ transport, MDCK cells; experiment: In vitro litholytic activity: Ca^2+ transport inhibition, Transwell chamber with MDCK cells; format: cell-based, canine; details: Canis lupus familiaris, 100 μmol/L, mean ± SD of three replicates, read-out: Transport Inhibition Rate (%) Ca^2+
[4] = tested on: C2O4^2− transport, MDCK cells; experiment: In vitro litholytic activity: C2O4^2− transport inhibition, Transwell chamber with MDCK cells; format: cell-based, canine; details: Canis lupus familiaris; 100 μmol/L, MDCK cells in Transwell; mean ± SD of three replicates; read-out: Transport Inhibition Rate (%) C2O4^2−
Outline: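 MDCK monolayers in Transwell upper chamber, used once resistance ≥300 Ω cm^2, treated 24 h with compounds at 100 μmol/L or saline. CaC2O4 (30 mmol/L) then added above, PBS below; lower-chamber Ca^2+ and C2O4^2− measured by kit at 0.5, 1, 2, 3 h, inhibition rate from OD versus blank.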

mice = tested on: mice; set-up: method as in PMID 32602352; details: cited from earlier work
[5] = 100 μmol/L, MDCK cells in Transwell, mean ± SD of three replicates, negative = promotion

Structure (SMILES)	inhibition at 100 µM (MDCK cells) [%]	inhibition at 100 µM [1, 5] [%]	inhibition at 100 µM [2] [%]	inhibition at 100 µM [3] [%]	inhibition at 100 µM [4] [%]	diuretic effect on mice (mice)	Transport Inhibition Rate (%) Na^+ [1, 5] [%]	Na^+ transport inhibition rate at 1, 2, and 3 h ([1]; evaluated at 1, 2, and 3 h (Figure 3))	melting point [°C]
COc1cc(C)c(C(=O)Oc2cc(C)c(C(=O)O)c(O)c2C)c(O)c1C [Compound 1, Barbatic acid]	< 0	12.3 ± 0.5	2.34 ± 1.2	8.8 ± 0.18	2.97 ± 2.21	had a diuretic effect on mice	–	–	–
CCOC(=O)c1c(C)cc(OC(=O)c2c(C)cc(OC)c(C)c2O)c(C)c1O [Compound 6c, 4-(ethoxycarbonyl)-3-hydroxy-2,5-dimethylphenyl 2-hydroxy-4-methoxy-3,6-dimethylbenzoate]	< 0	> 30	-7.56 ± 0.35	-2.3 ± 0.34	1.01 ± 2.03	–	47.18 ± 0.80	above 20%	175 to 178
